Test results published in patent publication US8058270B2, “Dihydropteridinones for the treatment of cancer diseases” (Boehringer Ingelheim International GmbH, priority 2004, dated 2011).

What was measured:
Test in all cases: Alamar Blue cytotoxicity assay
Assay type in all cases: cell-based
[1] = test system: DU145; conditions: Homo sapiens, DU-145; DU145 (Prostate), 72 h
From the text: (§1) Alamar Blue™ Cytotoxicity Assays
(§2) The Alamar Blue™ assay is designed to measure quantitatively the proliferation of cells by incorporating a fluorometric/colorimetric growth indicator based on the detection of metabolic activity.
(§3) Cell culture: The various human tumor cell lines can be purchased from American Type Culture Collection (ATCC) or the German Collection of Microorganisms and Cell Cultures (DSMZ) and cultivated in 75 to 175 cm^2 tissue culture flasks in the medium indicated by the supplier. The cells are maintained at 37° C. and 5% CO2 in a humidified atmosphere, with an appropriate split ratio. Logarithmically growing cells are used for the assays.
(§4) Assay conditions: On day one of the experiment 1000-4000 cells (in 100 μl medium) are seeded into each well of a sterile 96-well plate. The number of cells used is dependent on the growth rate and size of the cells. Eight wells on each plate are left free to accommodate for controls (4 wells for medium plus reduced AlamarBlue™, and 4 wells for medium plus oxidized AlamarBlue™). The plates are kept in the incubator overnight. On day two of the experiment serial dilutions of the inhibitor are prepared in medium containing 0.1% DMSO. Typical concentrations used are 10, 3, 1, 0.3, 0.1, 0.03, 0.01, 0.003 and 0.001 μM. 100 μl of the dilution (2× concentrate) is added to each well to yield a final volume of 200 μl per well. As controls plain medium and medium containing 0.1% DMSO are added to the designated wells. All data points are done in quadruplicates. The cells are then incubated for 72 h. After this incubation period 20 μl of AlamarBlue™ is added to each well. As a control, 20 μl of reduced AlamarBlue™ (AlamarBlue™ autoclaved for 30 min) is added to 4 wells without cells, and 20 μl of AlamarBlue™ is added to the remaining 4 wells without cells. After 4-5 h of incubation, the plates are measured in a fluorescence spectrophotometer (excitation 530 nm, emission 590 nm, slits 15, integrate time 0.1).
(§5) Data analysis: For calculation the mean value from the quadruplicates is taken and the background is subtracted. The 0.1% DMSO value (the mean obtained from 8 wells with cells in medium with 0.1% DMSO but no compound) is taken as 100% control. The data is fitted by iterative calculations using a sigmoidal curve analysis program (Graph Pad Prism version 3.03) with variable Hill slope.

[2] = test system: MDA-MB-435S; conditions: Homo sapiens; MDA-MB-435S (Breast), 72 h
From the text: as §1, §2, §3, §4, §5

[3] = test system: A431; conditions: Homo sapiens, A-431; A431 (Vulva), 72 h
From the text: as §1, §2, §3, §4, §5

[4] = test system: PC-3; conditions: Homo sapiens; PC-3 (Prostate), 72 h
From the text: as §1, §2, §3, §4, §5

[5] = test system: A549; conditions: Homo sapiens; A549 (Lung), 72 h
From the text: as §1, §2, §3, §4, §5

[6] = test system: Colo 205; conditions: Homo sapiens; Colo 205 (Colon), 72 h
From the text: as §1, §2, §3, §4, §5

[7] = test system: NCI-H520; conditions: Homo sapiens; NCI-H520 (Lung), 72 h
From the text: as §1, §2, §3, §4, §5

[8] = test system: NCI-H460; conditions: Homo sapiens; NCI-H460 (Lung), 72 h
From the text: as §1, §2, §3, §4, §5

[9] = test system: HL-60; conditions: Homo sapiens; HL-60 (Leukemia), 72 h
From the text: as §1, §2, §3, §4, §5

[10] = test system: H4; conditions: Homo sapiens; H4 (Brain), 72 h
From the text: as §1, §2, §3, §4, §5

[11] = test system: FaDu; conditions: Homo sapiens; FaDu (Head and Neck), 72 h
From the text: as §1, §2, §3, §4, §5

[12] = test system: HT29; conditions: Homo sapiens, HT-29; HT29 (Colon), 72 h
From the text: as §1, §2, §3, §4, §5

[13] = test system: SK-UT-1B; conditions: Homo sapiens, Skut1B; SK-UT-1B (Uterus), 72 h
From the text: as §1, §2, §3, §4, §5

[14] = test system: HepG2; conditions: Homo sapiens; HepG2 (Liver), 72 h
From the text: as §1, §2, §3, §4, §5

[15] = test system: HeLa S3; conditions: Homo sapiens; HeLa S3 (Cervix), 72 h
From the text: as §1, §2, §3, §4, §5

[16] = test system: SKOV-3; conditions: Homo sapiens, SK-OV-3; SKOV-3 (Ovary), 72 h
From the text: as §1, §2, §3, §4, §5

[17] = test system: NCI-N87; conditions: Homo sapiens; NCI-N87 (Stomach), 72 h
From the text: as §1, §2, §3, §4, §5

[18] = test system: Mia CaPa-2; conditions: Homo sapiens; Mia CaPa-2 (Pancreas), 72 h
From the text: as §1, §2, §3, §4, §5

[19] = test system: HCT116; conditions: Homo sapiens, HCT-116; HCT116 (Colon), 72 h
From the text: as §1, §2, §3, §4, §5

[20] = test system: Saos-2; conditions: Homo sapiens; Saos-2 (Bone), 72 h
From the text: as §1, §2, §3, §4, §5

[21] = test system: MCF7; conditions: Homo sapiens; MCF7 (Breast), 72 h
From the text: as §1, §2, §3, §4, §5

CC[C@@H]1C(=O)N(C)c2cnc(Nc3ccc(C(=O)NC4CCN(C)CC4)cc3OC)nc2N1C1CCCC1 [4-[[(7R)-8-cyclopentyl-7-ethyl-5,6,7,8-tetrahydro-5-methyl-6-oxo-2-pteridinyl]amino]-3-methoxy-N-(1-methyl-4-piperidinyl)-benzamide]
EC50 [1]: 6 nM | EC50 [2]: 17 nM | EC50 [3]: 2 nM | EC50 [4]: 7 nM | EC50 [5]: 6 nM | EC50 [6]: 9 nM | EC50 [7]: 10 nM | EC50 [8]: 14 nM | EC50 [9]: 14 nM | EC50 [10]: 22 nM | EC50 [11]: 6 nM | EC50 [12]: 4 nM | EC50 [13]: 8 nM | EC50 [14]: 10 nM | EC50 [15]: 12 nM | EC50 [16]: 4 nM | EC50 [17]: 14 nM | EC50 [18]: 7 nM | EC50 [19]: 9 nM | EC50 [20]: 8 nM | EC50 [21]: 9 nM
